# According to PubChem BioAssay (NCI):
#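 These data come from cells grown in 96-well plates and exposed to compound for 48 hours at five concentrations. TGI: total growth inhibition.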
# Experiments:
# Experiment in all cases: inhibition of tumour cell growth, NCI panel, 48 h
# ACHN renal = system: ACHN renal
# HCC-2998 colon = system: HCC-2998 colon
# EKVX NSCLC = system: EKVX NSCLC
# NCI-H522 lung = system: NCI-H522 lung
# SK-MEL-5 melanoma = system: SK-MEL-5 melanoma
# K-562 leukemia = system: K-562 leukemia
# MCF7 breast = system: MCF7 breast
# SF-539 CNS = system: SF-539 CNS
# RXF 393 renal = system: RXF 393 renal
# MOLT-4 leukemia = system: MOLT-4 leukemia
# DU-145 prostate = system: DU-145 prostate
# T-47D breast = system: T-47D breast
# OVCAR-5 ovarian = system: OVCAR-5 ovarian
# SNB-19 CNS = system: SNB-19 CNS
# COLO 205 colon = system: COLO 205 colon
# HT29 colon = system: HT29 colon
# HCT-116 colon = system: HCT-116 colon
# RPMI-8226 leukemia = system: RPMI-8226 leukemia
SMILES,TGI (ACHN renal) [µM],TGI (HCC-2998 colon) [µM],TGI (EKVX NSCLC) [µM],TGI (NCI-H522 lung) [µM],TGI (SK-MEL-5 melanoma) [µM],TGI (K-562 leukemia) [µM],TGI (MCF7 breast) [µM],TGI (SF-539 CNS) [µM],TGI (RXF 393 renal) [µM],TGI (MOLT-4 leukemia) [µM],TGI (DU-145 prostate) [µM],TGI (T-47D breast) [µM],TGI (OVCAR-5 ovarian) [µM],TGI (SNB-19 CNS) [µM],TGI (COLO 205 colon) [µM],TGI (HT29 colon) [µM],TGI (HCT-116 colon) [µM],TGI (RPMI-8226 leukemia) [µM]
O=c1[nH]c(-c2ccccc2)nc2c1sc1nc3ccccc3n12,> 100,> 100,> 100,> 100,> 100,> 100,> 100,> 100,> 100,> 100,> 100,> 100,> 100,> 100,> 100,> 100,> 100,> 100
CCOc1ccc(NCC2CC/C(=C\c3ccc(O)cc3)C2=O)cc1 (configuration not stated),31.2,34,39.5,11.7,33.8,> 100,18.1,36.1,32.7,> 38.4,> 59.9,62.2,29,> 55.2,28.6,33,23.6,> 25.3
COc1cccc2c1C(=O)c1ccc3cc(CCl)cc(O)c3c1C2=O,0.84,1.46,1.57,1.15,1.19,2.49,1.31,0.701,0.756,2.88,1.78,1.73,1.71,1.86,0.467,0.578,0.29,1.37
NC(=O)NC(=O)c1cccc(NC(=O)CF)c1,> 100,> 100,> 100,> 100,> 100,> 100,> 100,> 100,> 100,> 100,> 100,> 100,> 100,> 100,> 100,> 100,> 100,> 100
Cc1cc2nc(-c3c(F)cccc3F)n(Cc3c(F)cccc3F)c2cc1C,35.4,21.4,22.7,27.1,26.5,42.8,57.1,34.3,61,33.8,50.5,47.2,31.7,42.7,30.7,34,24.4,24
CCOc1cc2c(cc1OC(C)=O)C(=O)CC[C@H]1C3CC[C@H](OC(C)=O)[C@@]3(C)CC[C@H]21 (some centres not stated),> 100,> 100,> 100,> 100,> 100,> 100,> 100,> 100,> 100,> 100,> 100,> 100,> 100,> 100,> 100,> 100,> 100,> 100
Cc1ccc(S(=O)(=O)NNC2(NS(=O)(=O)c3ccc(Cl)cc3)C(Cl)=C(Cl)C(=O)c3ccccc32)cc1 (configuration not stated),29.7,33.2,28.9,> 100,28.7,36.1,37.3,48.8,31.1,> 100,33.2,> 100,33.4,29.8,34.9,35.1,32.4,67
NNCCc1n[nH]c(=O)n1N,> 100,> 100,> 100,> 100,> 100,> 100,> 100,> 100,> 100,> 100,> 100,> 100,> 100,> 100,> 100,> 100,> 100,> 100
O=C(/C=C/c1ccccc1)CSc1nc2ccc(I)cc2c(=O)n1Cc1ccccc1,> 100,66.9,> 37.2,> 89.5,99.3,> 100,> 100,> 100,> 94.5,35.2,> 100,> 100,> 100,> 100,> 67.8,> 100,> 100,> 88
CC(C)(C)OC(=O)N/N=C(/N)Cc1ccccc1,> 100,> 100,> 100,> 100,> 100,> 100,> 100,> 100,> 100,> 100,> 100,> 100,> 100,> 100,> 100,> 100,> 100,> 100
COc1cc(Oc2nc3c(N)cc(C(F)(F)F)cc3nc2-c2ccccc2)cc(OC)c1OC,32.5,> 55.1,> 100,18.8,48.6,6.6,> 50.5,14.3,52,> 100,> 100,> 100,> 100,27.6,> 80.7,5.31,> 45.3,> 100
Cn1cnc(N2CCCC2)c(C#N)c1=O,> 100,> 100,> 100,> 100,> 100,> 100,> 100,> 100,> 100,> 100,> 100,> 100,> 100,> 100,> 100,> 100,> 100,> 100
O=C1/C(=C/c2ccccc2)CCC/C1=C\c1ccc(O)c(CN2CCCCC2)c1,3.8,5.46,18.1,7.22,9.62,> 100,19.2,8.95,26.7,8.21,7.44,17.6,37.9,26,15.4,4.04,2.97,> 100
Cc1n[nH]c(=O)n1/N=C\CC/C=N\n1c(C)n[nH]c1=O,> 100,> 100,> 100,> 100,> 100,> 100,> 100,> 100,> 100,> 100,> 100,> 100,> 100,> 100,> 100,> 100,> 100,> 100
c1ccc2cc(CNCCOCCOCCNCc3ccc4ccccc4c3)ccc2c1,3.26,0.54,6.13,3.44,5.66,2.79,3.41,3.69,3.52,4.49,3.37,4.95,4,5.31,3.01,2.76,3.08,4.31
COc1ccc(C2(O)c3ccccc3C(=O)N(C)C2(O)c2ccc(OC)cc2)cc1 (configuration not stated),,> 100,> 100,74.9,> 100,> 100,> 100,> 100,> 100,> 100,> 100,> 100,> 100,> 100,60.1,> 100,> 100,> 100
COC(=O)CC(=O)Nc1sccc1S(=O)(=O)c1ccccc1,> 100,41.6,> 100,> 100,> 100,> 100,> 100,> 100,> 100,> 100,> 100,> 100,> 100,> 100,> 100,> 100,> 100,> 100
O=C1/C(=C/c2c(Cl)[nH]c3ccccc23)c2ccccc2N1c1ccccc1,57.2,20.7,27.2,10.7,,> 100,30.9,7.44,31.1,31.8,32.9,16,81.9,> 100,5.34,18.9,15.6,22.3
CCOP(=O)(OCC)C1=C(c2ccccc2)OC(N)=C(C#N)C1c1ccc(Cl)cc1 (configuration not stated),> 100,> 100,> 100,> 100,> 100,> 100,> 100,> 100,> 100,> 100,> 100,> 100,> 100,> 100,> 100,> 100,> 100,> 100
COc1ccc(C(=O)N(C(=S)OCCOc2ccccc2)c2ccccc2)cc1,> 100,> 100,96.6,> 100,,> 100,> 100,> 100,98.5,53.8,> 100,55.4,> 100,> 100,> 100,> 100,> 100,37.9
